In ChEMBL document CHEMBL1130478, “Mono and bis double ester prodrugs of novel aminomethyl-THF 1-methylcarbapenems” (Bioorg Med Chem Lett, 1997):
In brackets after ≈: the same amount, converted by molar mass.

What was measured:
Enterococcus faecalis [1] = assay: In vitro antibacterial activity against E. faecalis(GC 842) without pre-incubation in mouse serum
Pseudomonas aeruginosa [2] = assay: In vitro antibacterial activity against Pseudomonas aeruginosa (ATCC 27853) without pre-incubation in mouse serum; assay type: functional
[3] = test system: Acinetobacter calcoaceticus; assay: In vitro antibacterial activity against Acinetobacter calcoaceticus (GC 756) without preincubation in mouse serum; assay type: functional
Pseudomonas aeruginosa [4] = assay: In vitro antibacterial activity against P. aeruginosa(GC 1544 oprd) without pre-incubation in mouse serum; assay type: functional
[5] = test system: Stenotrophomonas maltophilia; assay: In vitro antibacterial activity against X. maltophilia(GC 562) without pre-incubation in mouse serum
Escherichia coli [6] = assay: In vitro antibacterial activity expressed as MIC against Escherichia coli (ATCC 25922) without pre-incubation in mouse serum; assay type: functional
Mus musculus [7] = assay: Antibacterial activity against Escherichia coli (311) infection in mice after single oral dose, activity expressed as ED50; assay type: functional
Enterobacter cloacae [8] = assay: In vitro antibacterial activity against E. cloacae(GC 2209) without pre-incubation in mouse serum; assay type: functional
Citrobacter freundii [9] = assay: In vitro antibacterial activity against C. freundii(GC 2211) without preincubation in mouse serum; assay type: functional
Mus musculus [10] = assay: Antibacterial activity against Escherichia coli (311) infection in mice after single subcutaneous dose, activity expressed as ED50; assay type: functional; details: sc
Escherichia coli [11] = assay: In vitro antibacterial activity expressed as MIC against E. coli(GC 1792) without pre-incubation in mouse serum; assay type: functional
Escherichia coli [12] = assay: In vitro antibacterial activity expressed as MIC against E. coli(GC 2205) without pre-incubation in mouse serum; assay type: functional
Enterococcus faecium [13] = assay: In vitro for antibacterial activity against E. faecium(GC 1182) without pre-incubation in mouse serum; assay type: functional
Staphylococcus aureus [14] = assay: In vitro antibacterial activity against S. aureus(ATCC 29213) without pre-incubation in mouse serum; assay type: functional
[15] = molecular target: T1, Dipeptidase 1 (Sus scrofa) (UniProt P22412); assay: Relative hydrolysis by hog Dehydropeptidase; assay type: functional
T1 sequence (whole entry): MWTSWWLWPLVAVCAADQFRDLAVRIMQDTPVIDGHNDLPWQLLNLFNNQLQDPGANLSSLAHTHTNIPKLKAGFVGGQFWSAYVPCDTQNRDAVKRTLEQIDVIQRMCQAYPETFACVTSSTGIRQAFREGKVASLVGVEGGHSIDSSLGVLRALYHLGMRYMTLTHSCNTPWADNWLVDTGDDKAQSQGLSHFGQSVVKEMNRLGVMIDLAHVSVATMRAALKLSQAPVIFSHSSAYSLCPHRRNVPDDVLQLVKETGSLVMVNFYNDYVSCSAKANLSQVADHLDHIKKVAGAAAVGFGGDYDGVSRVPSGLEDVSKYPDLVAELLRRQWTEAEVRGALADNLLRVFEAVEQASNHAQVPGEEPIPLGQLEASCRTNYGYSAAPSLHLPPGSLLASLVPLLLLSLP

Staphylococcus aureus [16] = assay: In vitro antibacterial activity against S. aureus(GC 2220 MRSA) without pre-incubation in mouse serum; assay type: functional
Morganella morganii [17] = assay: In vitro antibacterial activity against M. morganii(GC 2213) without preincubation in mouse serum
Escherichia coli [18] = assay: In vitro antibacterial activity expressed as MIC against Escherichia coli (ATCC 25922) following pre-incubation in mouse serum; assay type: functional
Enterococcus faecalis [19] = assay: In vitro antibacterial activity against E. faecalis(GC 842) following pre-incubation in mouse serum; assay type: functional
Pseudomonas aeruginosa [20] = assay: In vitro antibacterial activity against P. aeruginosa(GC 1544 oprd) following pre-incubation in mouse serum; assay type: functional
Morganella morganii [21] = assay: In vitro antibacterial activity against M. morganii(GC 2213) following pre-incubation in mouse serum; assay type: functional
Enterococcus faecium [22] = assay: In vitro for antibacterial activity against E. faecium(GC 1182) following pre-incubation in mouse serum; assay type: functional
[23] = test system: Stenotrophomonas maltophilia; assay: In vitro antibacterial activity against X. maltophilia(GC 562) following pre-incubation in mouse serum; assay type: functional
Escherichia coli [24] = assay: In vitro antibacterial activity expressed as MIC against E. coli(GC 2205) following pre-incubation in mouse serum; assay type: functional
Enterococcus faecalis [25] = assay: In vitro antibacterial activity against E. faecalis(GC 842) without pre-incubation in mouse serum; assay type: functional
Citrobacter freundii [26] = assay: In vitro antibacterial activity against C. freundii(GC 2211) following pre-incubation in mouse serum; assay type: functional
Escherichia coli [27] = assay: In vitro antibacterial activity expressed as MIC against E. coli(GC 1792) following pre-incubation in mouse serum; assay type: functional
[28] = test system: Acinetobacter calcoaceticus; assay: In vitro antibacterial activity against Acinetobacter calcoaceticus (GC 756) following preincubation in mouse serum; assay type: functional
[29] = test system: Stenotrophomonas maltophilia; assay: In vitro antibacterial activity against X. maltophilia(GC 562) without pre-incubation in mouse serum; assay type: functional
Staphylococcus aureus [30] = assay: In vitro antibacterial activity against S. aureus(GC 2220 MRSA) following pre-incubation in mouse serum; assay type: functional
Morganella morganii [31] = assay: In vitro antibacterial activity against M. morganii(GC 2213) without pre-incubation in mouse serum; assay type: functional
Enterobacter cloacae [32] = assay: In vitro antibacterial activity against E. cloacae(GC 2209) following preincubation in mouse serum; assay type: functional
Staphylococcus aureus [33] = assay: In vitro antibacterial activity against S aureus(ATCC 29213) following preincubation in mouse serum; assay type: functional
Pseudomonas aeruginosa [34] = assay: In vitro antibacterial activity against Pseudomonas aeruginosa (ATCC 27853) following pre-incubation in mouse serum; assay type: functional

MIC (Pseudomonas aeruginosa [2]) | MIC [3] | MIC (Pseudomonas aeruginosa [4]) | MIC (Escherichia coli [6]) | MIC (Enterobacter cloacae [8]) | MIC (Citrobacter freundii [9]) | MIC (Escherichia coli [11]) | MIC (Escherichia coli [12]) | MIC (Enterococcus faecium [13]) | MIC (Staphylococcus aureus [14]) | Relative hydrolysis [15] | MIC (Staphylococcus aureus [16]) | MIC (Escherichia coli [18]) | MIC (Enterococcus faecalis [19]) | MIC (Pseudomonas aeruginosa [20]) | MIC (Morganella morganii [21]) | MIC (Enterococcus faecium [22]) | MIC [23] | SMILES | ED50 (Mus musculus [7]) | ED50 (Mus musculus [10]) | other results
> 128 µg/mL | > 128 µg/mL | > 128 µg/mL | 128 µg/mL (≈ 208 µM) | > 128 µg/mL | > 128 µg/mL | > 128 µg/mL | 1 µg/mL (≈ 1.62 µM) | > 128 µg/mL | 4 µg/mL (≈ 6.49 µM) | 19 | 64 µg/mL (≈ 104 µM) | 0.06 µg/mL (≈ 0.0973 µM) | 2 µg/mL (≈ 3.24 µM) | 64 µg/mL (≈ 104 µM) | 2 µg/mL (≈ 3.24 µM) | 64 µg/mL (≈ 104 µM) | > 128 µg/mL | CCOC(=O)OCOC(=O)C1=C(S[C@@H]2CCO[C@@H]2CNC(=O)OC(C)OC(=O)C(C)(C)C)[C@H](C)C2[C@@H]([C@@H](C)O)C(=O)N12 (stereo not given in full) | 0.42 mg/kg | 0.46 mg/kg | MIC (Escherichia coli [24]): 0.06 µg/mL (≈ 0.0973 µM); MIC (Enterococcus faecalis [25]): 32 µg/mL (≈ 51.9 µM); MIC (Citrobacter freundii [26]): 0.5 µg/mL (≈ 0.811 µM); MIC (Escherichia coli [27]): 0.06 µg/mL (≈ 0.0973 µM); MIC [28]: 8 µg/mL (≈ 13 µM); MIC [29]: > 128 µg/mL; MIC (Staphylococcus aureus [30]): 4 µg/mL (≈ 6.49 µM); MIC (Morganella morganii [31]): > 128 µg/mL; MIC (Enterobacter cloacae [32]): 0.12 µg/mL (≈ 0.195 µM); MIC (Staphylococcus aureus [33]): 0.06 µg/mL (≈ 0.0973 µM); MIC (Pseudomonas aeruginosa [34]): 32 µg/mL (≈ 51.9 µM)
> 128 µg/mL | > 128 µg/mL | > 128 µg/mL | 32 µg/mL (≈ 54.4 µM) | > 128 µg/mL | > 128 µg/mL | 16 µg/mL (≈ 27.2 µM) | 20 µg/mL (≈ 34 µM) | > 128 µg/mL | 4 µg/mL (≈ 6.8 µM) | 11 | 128 µg/mL (≈ 217 µM) | < 0.06 µg/mL | 2 µg/mL (≈ 3.4 µM) | 32 µg/mL (≈ 54.4 µM) | 1 µg/mL (≈ 1.7 µM) | 128 µg/mL (≈ 217 µM) | > 128 µg/mL | CCOC(=O)OCOC(=O)C1=C(S[C@@H]2CCO[C@@H]2CNC(=O)OCOC(=O)C(C)C)[C@H](C)C2[C@@H]([C@@H](C)O)C(=O)N12 (stereo not given in full) | 0.56 mg/kg | 0.4 mg/kg | MIC (Escherichia coli [24]): 0.06 µg/mL (≈ 0.102 µM); MIC (Enterococcus faecalis [25]): 64 µg/mL (≈ 109 µM); MIC (Citrobacter freundii [26]): 0.25 µg/mL (≈ 0.425 µM); MIC (Escherichia coli [27]): 0.06 µg/mL (≈ 0.102 µM); MIC [28]: 4 µg/mL (≈ 6.8 µM); MIC [29]: > 128 µg/mL; MIC (Staphylococcus aureus [30]): 4 µg/mL (≈ 6.8 µM); MIC (Morganella morganii [31]): 128 µg/mL (≈ 217 µM); MIC (Enterobacter cloacae [32]): 0.12 µg/mL (≈ 0.204 µM); MIC (Staphylococcus aureus [33]): 0.06 µg/mL (≈ 0.102 µM); MIC (Pseudomonas aeruginosa [34]): 16 µg/mL (≈ 27.2 µM)
64 µg/mL | 32 µg/mL | > 128 µg/mL | 0.25 µg/mL | 1 µg/mL | 2 µg/mL | 0.5 µg/mL | 0.12 µg/mL | > 128 µg/mL | 0.25 µg/mL | 2.9 | 8 µg/mL | < 0.06 µg/mL | 1 µg/mL | 16 µg/mL | 0.5 µg/mL | 64 µg/mL | > 128 µg/mL | CC(C)C(=O)OCOC(=O)NC[C@H]1OCC[C@H]1SC1=C(C(=O)[O-])N2C(=O)[C@H]([C@@H](C)O)C2[C@H]1C.[Na+] (stereo not given in full) | 5.1 mg/kg | 0.59 mg/kg | MIC (Escherichia coli [24]): < 0.06 µg/mL; MIC (Enterococcus faecalis [25]): 4 µg/mL; MIC (Citrobacter freundii [26]): 0.25 µg/mL; MIC (Escherichia coli [27]): < 0.06 µg/mL; MIC [28]: 4 µg/mL; MIC [29]: > 128 µg/mL; MIC (Staphylococcus aureus [30]): 2 µg/mL; MIC (Morganella morganii [31]): 4 µg/mL; MIC (Enterobacter cloacae [32]): 0.06 µg/mL; MIC (Staphylococcus aureus [33]): 0.03 µg/mL; MIC (Pseudomonas aeruginosa [34]): 8 µg/mL

SMILES | MIC (Pseudomonas aeruginosa [2]) | MIC [3] | MIC (Pseudomonas aeruginosa [4]) | MIC (Escherichia coli [6]) | MIC (Enterobacter cloacae [8]) | MIC (Citrobacter freundii [9]) | MIC (Escherichia coli [11]) | MIC (Escherichia coli [12]) | MIC (Enterococcus faecium [13]) | MIC (Staphylococcus aureus [14]) | Relative hydrolysis [15] | MIC (Staphylococcus aureus [16]) | MIC (Escherichia coli [18]) | MIC (Enterococcus faecalis [19]) | MIC (Pseudomonas aeruginosa [20]) | MIC (Morganella morganii [21]) | MIC (Enterococcus faecium [22]) | MIC [23] | ED50 (Mus musculus [7]) | ED50 (Mus musculus [10]) | other results
C[C@@H](O)[C@H]1C(=O)N2C(C(=O)O)=C(S[C@@H]3CCO[C@@H]3CN)[C@H](C)[C@H]12 | 8 µg/mL (≈ 23.4 µM) | 2 µg/mL (≈ 5.84 µM) | 16 µg/mL (≈ 46.7 µM) | < 0.06 µg/mL | < 0.06 µg/mL | < 0.06 µg/mL | < 0.06 µg/mL | < 0.06 µg/mL | 64 µg/mL (≈ 187 µM) | < 0.06 µg/mL | 8.5 | 1 µg/mL (≈ 2.92 µM) | – | – | – | – | – | – | 3.8 mg/kg | 0.34 mg/kg | MIC (Enterococcus faecalis [1]): 0.5 µg/mL (≈ 1.46 µM); MIC [5]: > 128 µg/mL; MIC (Morganella morganii [17]): 0.5 µg/mL (≈ 1.46 µM)
